For data set [1], the target named is T1, hA3 AR (Homo sapiens, UniProt P0DMS8).
T1 construct: expressed in transfected cells; host or cells: CHO cells, stably transfected
T1 sequence (P0DMS8 1-318): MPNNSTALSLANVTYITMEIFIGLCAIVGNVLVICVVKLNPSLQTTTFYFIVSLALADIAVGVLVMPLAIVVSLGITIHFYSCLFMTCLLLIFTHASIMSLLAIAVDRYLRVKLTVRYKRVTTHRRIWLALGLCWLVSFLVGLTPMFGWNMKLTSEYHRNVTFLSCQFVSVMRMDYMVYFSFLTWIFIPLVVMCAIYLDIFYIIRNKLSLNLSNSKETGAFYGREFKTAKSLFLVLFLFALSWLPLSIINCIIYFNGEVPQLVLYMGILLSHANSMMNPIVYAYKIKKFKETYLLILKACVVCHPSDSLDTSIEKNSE
Put plainly: Radioligand binding at human A3 ARs, displacement of [3H]HEMADO, membranes of transfected CHO cells. The note with it: for Ki, hA1/hA3 (selectivity) / Ki, hA2a/hA3 (selectivity) / Ki, hA2b/hA3 (selectivity): ratio of Ki values, for reference compounds from literature affinities (Borea et al. unless otherwise indicated). (In general: Displacement assays read how much labelled ligand stays bound in the presence of the test substance.)
Protocol: (§1) All pharmacological methods followed the procedures as described earlier. […] In brief, membranes for radioligand binding were prepared from CHO cells stably transfected with human AR subtypes in a two-step procedure. In a first low-speed step (1,000 x g) cell fragments and nuclei were removed. The crude membrane fraction was sedimented from the supernatant at 100,000 x g. The membrane pellet was resuspended in the buffer used for the respective binding experiments (50 mM Tris/HCl buffer pH 7.4 for hA1 and hA2A AR; 50 mM Tris/HCl, 10 mM MgCl2, 1 mM EDTA, pH 8.25 for hA3 AR), frozen in liquid nitrogen and stored at -80°C.
(§2) Ki-values from competition experiments were calculated with the program SCTFIT.

Data set [2] deals with T1, hA3 AR. The note with it: cited from earlier work; for Ki: reference xanthines.
A further data set addresses T2, hA2B AR (Homo sapiens, UniProt P29275).
T2 construct: expressed in transfected cells; host or cells: CHO cells, stably transfected
T2 sequence (P29275 1-332): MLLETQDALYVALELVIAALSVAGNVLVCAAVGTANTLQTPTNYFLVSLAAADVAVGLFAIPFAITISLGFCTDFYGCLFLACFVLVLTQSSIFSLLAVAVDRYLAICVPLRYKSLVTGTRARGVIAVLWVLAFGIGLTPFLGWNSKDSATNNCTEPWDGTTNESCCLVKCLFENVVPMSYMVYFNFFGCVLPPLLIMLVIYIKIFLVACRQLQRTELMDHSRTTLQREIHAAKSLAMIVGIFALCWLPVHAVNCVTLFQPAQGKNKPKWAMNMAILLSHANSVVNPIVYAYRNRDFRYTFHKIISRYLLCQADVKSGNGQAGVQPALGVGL
Put plainly: Inhibition of NECA-stimulated adenylyl cyclase activity in CHO cells expressing hA2B ARs. It counts as biochemical.

Data set [3] concerns the target T3, hA2A AR (Homo sapiens, UniProt P29274).
T3 construct: expressed in transfected cells; host or cells: CHO cells, stably transfected
As to the kind of experiment: Radioligand binding at human A2A ARs, displacement of [3H]NECA, membranes of transfected CHO cells.
Protocol: as §1, §2

Another data set concerns the target T4, hA1 AR (Homo sapiens, UniProt P30542).
T4 sequence (P30542 1-326): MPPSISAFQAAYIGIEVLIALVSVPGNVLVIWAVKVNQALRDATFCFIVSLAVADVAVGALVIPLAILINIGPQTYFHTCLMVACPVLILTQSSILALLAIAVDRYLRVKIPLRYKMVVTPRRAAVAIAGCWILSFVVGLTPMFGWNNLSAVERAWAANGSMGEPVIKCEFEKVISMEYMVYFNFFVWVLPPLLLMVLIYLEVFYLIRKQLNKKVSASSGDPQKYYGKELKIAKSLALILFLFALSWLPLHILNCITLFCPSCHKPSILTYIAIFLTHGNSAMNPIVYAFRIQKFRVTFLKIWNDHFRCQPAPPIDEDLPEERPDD
As to the kind of experiment: Radioligand binding at human A1 ARs, displacement of [3H]CCPA, membranes of transfected CHO cells.

The target of data set [4] is T3, hA2A AR. Conditions: reference xanthines; cited from earlier work.
Where [5] appears, read: displacement of specific [3H]-HEMADO binding, CHO cells, geometric means with 95% confidence limits, read-out: hA3 AR (Ki nM).
The mark [6] stands for this setting: displacement of specific [3H]-NECA binding, CHO cells, geometric means with 95% confidence limits, read-out: hA2A AR (Ki nM).
[7] abbreviates: displacement of specific [3H]-CCPA binding, CHO cells, n = 3–6, geometric means with 95% confidence limits, read-out: hA1 AR (Ki nM).
Where [8] appears, read: competition for [3H]HEMADO, total binding, single experiment (S1 Fig), read-out: Ki, hA3 AR, representative single experiment.

Molecules are shown by their SMILES. Where a name gives a salt, the structure may show the parent alone. Read-outs that look alike come from different tables or passages of the source.

Consider ten molecules from paper PMC4666649, “The Influence of the 1-(3-Trifluoromethyl-Benzyl)-1H-Pyrazole-4-yl Moiety on the Adenosine Receptors Affinity Profile of Pyrazolo[4,3-e][1,2,4]Triazolo[1,5-c]Pyrimidine Derivatives” (PLoS ONE, 2015).

T3 sequence (P29274 whole entry): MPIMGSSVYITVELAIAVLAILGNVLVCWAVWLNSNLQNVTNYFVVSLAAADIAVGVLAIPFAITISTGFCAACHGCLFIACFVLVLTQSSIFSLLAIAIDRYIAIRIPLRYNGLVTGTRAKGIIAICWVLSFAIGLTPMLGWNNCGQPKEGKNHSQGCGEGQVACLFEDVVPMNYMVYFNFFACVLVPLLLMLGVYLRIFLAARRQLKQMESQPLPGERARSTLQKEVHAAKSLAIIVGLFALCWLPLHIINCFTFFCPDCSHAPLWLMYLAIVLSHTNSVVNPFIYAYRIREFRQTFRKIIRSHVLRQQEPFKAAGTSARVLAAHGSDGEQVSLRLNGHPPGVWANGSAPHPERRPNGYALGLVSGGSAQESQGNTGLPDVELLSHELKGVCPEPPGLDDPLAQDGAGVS
Protocol for hA1 AR: as §1, §2
Protocol for hA2B AR: All pharmacological methods followed the procedures as described earlier. […] For the measurement of adenylyl cyclase activity only one high speed centrifugation of the homogenate was used. The resulting crude membrane pellet was resuspended in 50 mM Tris/HCl, pH 7.4 and immediately used for the cyclase assay.
The procedure was carried out as described previously with minor modifications. […] Membranes were incubated with about 150,000 cpm of [α-^32P]ATP for 20 min in the incubation mixture as described without EDTA and NaCl.

Take `Cn1cc2c(nc(NC(=O)Nc3ccncc3)n3nc(-c4ccco4)nc23)n1` [MRE3005F20 (HCl), reference compound]: on hA3 AR [1], the “Ki, hA1/hA3 (selectivity)” value is 35000; the “Ki, hA2a/hA3 (selectivity)” value amounted to 10000; the “Ki, hA2b/hA3 (selectivity)” value stood at 25000.
With `CCCCC#Cc1nc(NC)c2ncn([C@@H]3O[C@H](CO)[C@@H](O)[C@H]3O)c2n1` [[^3H]HEMADO, [^3H]2-(1-Hexynyl)-N-methyladenosine], on hA3 AR [2] (radioligand used at 1 nM, read-out: KD of radioligand at A3 AR), the Kd was 1.1 nM.
Take `Cn1c(=O)c2[nH]c(-c3cnn(Cc4cccc(C(F)(F)F)c4)c3)nc2n(C)c1=O` [compound 1, 8-(1-(3-(trifluoromethyl)benzyl)-1H-pyrazol-4-yl)-1,3-dimethyl-1H-purine-2,6(3H,7H)-dione, reference compound]: at hA3 AR [1], the “Ki, hA1/hA3 (selectivity)” value is listed as 1 and the “Ki, hA2a/hA3 (selectivity)” value is listed as 1.
In turn, `Cn1cc2c(nc(N)n3nc(-c4cnn(Cc5cccc(C(F)(F)F)c5)c4)nc23)n1` [compound 3, 8-methyl-2-[1-(3-trifluoromethyl-benzyl)-1H-pyrazol-4-yl]-8H-pyrazolo[4,3-e][1,2,4]triazolo[1,5-c]pyrimidin-5-ylamine] showed a melting point of 125 °C. At hA2B AR, the inhibition constant Ki was over 10000 nM and the “hA2B AR (Ki nM)” value is “almost inactive”. The “hA3 AR (Ki nM)” value on hA3 AR [1] (displacement of specific [3H]-HEMADO binding, CHO cells, geometric means with 95% confidence limits) was “almost inactive”. Besides, on hA3 AR [1] (setting [5]), the Ki was found to be 2360 nM. In addition, on hA3 AR [1], the “Ki, hA2a/hA3 (selectivity)” value is on record as 4 and the “Ki, hA2b/hA3 (selectivity)” value is 4. The Ki at hA2A AR [3] (competition with [3H]NECA, total binding, single experiment (S3 Fig), read-out: Ki, hA2A AR, representative single experiment) was found to be 6820 nM. Further, the “hA2A AR (Ki nM)” value on hA2A AR [3] (displacement of specific [3H]-NECA binding, CHO cells, geometric means with 95% confidence limits) was “almost inactive”. Moreover, the Ki on hA2A AR [3] (setting [6]) turned out to be 8280 nM. The Ki on hA1 AR (competition with [3H]CCPA, total binding, single experiment (S2 Fig), read-out: Ki, hA1 AR, representative single experiment) was 764 nM. For the same molecule, the “hA1 AR (Ki nM)” value on hA1 AR (displacement of specific [3H]-CCPA binding, CHO cells, n = 3–6, geometric means with 95% confidence limits) was “almost inactive”. In addition, on hA1 AR (setting [7]), the Ki was 703 nM.
As for `Cn1cc2c(nc(NC(=O)Nc3ccccc3)n3nc(-c4cnn(Cc5cccc(C(F)(F)F)c5)c4)nc23)n1` [compound 4, 1-{8-Methyl-2-[1-(3-trifluoromethyl-benzyl)-1H-pyrazol-4-yl]-8H-pyrazolo[4,3-e][1,2,4]triazolo [1,5-c]pyrimidin-5-yl}-3-phenylurea], the Ki is over 10000 nM at hA2B AR; 39 nM at hA3 AR [1] (setting [8]); 46.7 nM on hA3 AR [1] (setting [5]); 2460 nM at hA2A AR [3] (setting [6]); 3890 nM at hA1 AR (setting [7]).
For the molecule `Cn1cc2c(nc(NC(=O)c3ccccc3)n3nc(-c4cnn(Cc5cccc(C(F)(F)F)c5)c4)nc23)n1` [compound 5, N-{8-Methyl-2-[1-(3-trifluoromethyl-benzyl)-1H-pyrazol-4-yl]-8H-pyrazolo[4,3-e][1,2,4]triazolo[1,5-c]pyrimidin-5-yl}-benzamide], the Ki is over 10000 nM at hA2B AR, 138 nM at hA3 AR [1] (setting [5]), over 100000 nM at hA2A AR [3] (setting [6]) and 25500 nM on hA1 AR (setting [7]).
With `Cn1cc2c(nc(NC(=O)Cc3ccccc3)n3nc(-c4cnn(Cc5cccc(C(F)(F)F)c5)c4)nc23)n1` [compound 6, N-{8-Methyl-2-[1-(3-trifluoromethyl-benzyl)-1H-pyrazol-4-yl]-8H-pyrazolo[4,3-e][1,2,4]triazolo[1,5-c]pyrimidin-5-yl}-phenyl-acetamide], the melting point was 190 °C. Moreover, the Ki on hA2B AR is over 10000 nM. On hA3 AR [1] (setting [8]), the inhibitory constant (Ki) is 17 nM. The Ki at hA3 AR [1] (setting [5]) was found to be 11 nM. For the same molecule, at hA3 AR [1], the “Ki, hA2a/hA3 (selectivity)” value is over 9091 and the “Ki, hA2b/hA3 (selectivity)” value is given as over 909. The Ki on hA2A AR [3] (setting [6]) is over 100000 nM. For the same molecule, on hA1 AR (setting [7]), the Ki is over 100000 nM.
`COc1ccc(CC(=O)Nc2nc3nn(C)cc3c3nc(-c4cnn(Cc5cccc(C(F)(F)F)c5)c4)nn23)cc1` [compound 7]: the melting point came out at 178 °C. On hA2B AR, the Ki is over 10000 nM. Further, the Ki on hA3 AR [1] (setting [5]) amounted to 53 nM. For the same molecule, the Ki at hA2A AR [3] (setting [6]) turned out to be 20500 nM. Further, at hA1 AR (setting [7]), the Ki amounted to 4390 nM.
In the case of `CCCn1c(=O)c2[nH]c(-c3cnn(Cc4cccc(C(F)(F)F)c4)c3)nc2n(CCC)c1=O` [compound 33, reference compound], at hA3 AR [1], the “Ki, hA1/hA3 (selectivity)” value is recorded as 3 and the “Ki, hA2a/hA3 (selectivity)” value is 4. For the same molecule, the Ki at hA3 AR [2] was 56 nM. Further, at hA2A AR [4], the Ki is 230 nM.
Regarding `CCCn1c(=O)c2[nH]c(-c3cnn(Cc4cccc(F)c4)c3)nc2n(CCC)c1=O` [compound 36, reference compound], at hA3 AR [1], the “Ki, hA1/hA3 (selectivity)” value stood at 1 and the “Ki, hA2a/hA3 (selectivity)” value is 3. Further, the Ki on hA3 AR [2] was 150 nM. Moreover, the Ki on hA2A AR [4] is 400 nM.

By Kd is commonly meant a measure of binding affinity in units of concentration. As a reminder, the melting point is the temperature of the solid-liquid transition. For orientation: Ki means the equilibrium dissociation constant of an inhibitor or competing ligand from its target.
